Assays:
[1] = tested on: mitochondrial membrane potential; experiment: mitochondrial membrane potential, TMRM assay; type: cell-based; details: CD1-012 10 μM or 15 μM, CCCP 10 μM, 24 hours
Description: (§1) It was confirmed whether the isoquinoline derivative according to the present invention induces mitochondrial dysfunction, similar to CCCP. To this end, the CD1-012 (10 μM or 15 μM) and CCCP (10 μM) were treated for 24 hours, and the mitochondrial membrane potential and mitochondrial reactive oxygen species (ROS) levels in each sample were analyzed. Mitochondrial membrane potential was analyzed using the TMRM (tetramethylrhodamine methyl ester) assay, and mitochondrial ROS levels were analyzed using the MitoSOX assay.

[2] = tested on: mitochondrial reactive oxygen species (ROS); experiment: mitochondrial reactive oxygen species, MitoSOX assay; type: cell-based; details: CD1-012 10 μM or 15 μM, CCCP 10 μM, 24 hours
Description: as §1

[3] = tested on: PINK1 knockdown cell line (shPINK1); experiment: mitophagy activity by FACS in PINK1 knockdown BEAS-2B cell line; type: cell-based, human; details: CCCP 10 μM, CD1-012 15 μM, 18 hours
Description: In this example, it was confirmed whether the mitophagy activation function of the isoquinoline derivative according to the present invention is dependent on the PINK1-Parkin pathway. To this end, after a BEAS-2B cell line, in which PINK1 was knocked down using short hairpin RNA (shRNA), was treated with CCCP (10 μM) of Comparative Example 1 or CD1-012 (15 μM) for 18 hours, the mitophagy activity of each sample was analyzed using flow cytometry (FACS).

BEAS-2B cell line [4] = experiment: mitophagy activity, mt-Keima fluorescent protein in BEAS-2B cells (FACS, confocal microscope, mito-YFP); type: cell-based, human; details: BEAS-2B mt-Keima
Description: To analyze the mitophagy-promoting activity effect of the CD1-012 synthesized in the Example 1, the BEAS-2B cell line, which is a human normal lung cell line, was induced to express the mt-Keima fluorescent protein. Following this, the CD1-012 (15 μM) and the compound of Comparative Example 1, CCCP (10 μM), were treated for 24 hours. After the treatment, the mitophagy activity of each sample was measured, and the results were represented in FIGS. 1A to 1C.
Specifically, FIG. 1A represents the analysis results using flow cytometry (FACS) (treatment of CD1-012 at 15 μM for 24 hours), FIG. 1B represents the analysis results using a confocal microscope (treatment of CD1-012 at 15 μM for 18 hours), and FIG. 1C represents the measurement results of the quantitative changes in the mitochondria using a fluorescent protein, mito-YFP, which includes a targeting sequence to transport protein to the mitochondria (treatment of CD1-012 at 20 μM for 24 hours).
It was confirmed whether CD1-012 synthesized in Example 1 promotes mitophagy activity in a concentration- and time-dependent manner. To this end, the CD1-012 was treated at various concentrations or at a fixed concentration (15 μM) for different treatment durations in the BEAS-2B cell line expressing mt-Keima, and mitophagy activity was measured using a flow cytometer.
(§2) It was confirmed whether CD1-012 synthesized in Example 1 specifically increases only mitophagy activity. To this end, the BEAS-2B cell line expressing mt-Keima was treated with CD1-012 (15 μM) or Comparative Example 1 (CCCP, 10 μM) for 18 hours, and mitophagy activity was analyzed using a confocal microscope. Additionally, to measure autophagy activity, the BEAS-2B cell line expressing Keima fluorescent protein was incubated in Hanks' balanced salt solution (HBSS) for 3 hours to induce a starvation condition (starv.), and the results were compared with samples treated with CD1-012 (15 μM) for 18 hours using a confocal microscope.
To this end, the human normal lung cell line BEAS-2B, expressing mt-Keima fluorescent protein, was treated with CD1-012, Comparative Example 2 (palmatine), or Comparative Example 3 (berberine) at various concentrations, and the mitophagy-inducing activity of each sample was compared.

SH-SYSY cell line = experiment: mitophagy activity by flow cytometry in SH-SY5Y cells expressing mt-Keima; type: cell-based, human; details: FACS
Description: (§3) It was confirmed whether CD1-012 synthesized in Example 1 increases mitophagy activity in various cell lines. To this end, CD1-012 and Comparative Example 1 (CCCP) were treated in the SH-SYSY cell line, a human neuroblastoma cell line expressing mt-Keima fluorescent protein, and in the HeLa-Parkin cell line, a HeLa cervical cancer cell line expressing Parkin (E3 ligase). Following this treatment, the mitophagy activity of each sample was analyzed using flow cytometry (FACS), and the results are shown in FIGS. 2A to 2B.

HeLa-Parkin cell line = experiment: mitophagy activity by flow cytometry in HeLa-Parkin cells; type: cell-based; details: FACS
Description: as §3

BEAS-2B cell line [5] = experiment: autophagy activity, Keima fluorescent protein in BEAS-2B cells (confocal microscope); type: cell-based, human; details: BEAS-2B Keima; 15 μM 18 hours, FIG. 4B
Description: as §2

143B MELAS cell line [6] = experiment: mitophagy activity, mt-Keima in 143B MELAS cell line (FACS, confocal microscope); type: cell-based; details: 143B MELAS mt-Keima
Text: (§4) In the previous example, it was confirmed that mitochondrial dysfunction occurs in the MELAS syndrome cell line, and in the present example, it was confirmed whether the compound according to the present invention can promote mitophagy in the MELAS syndrome cell line. In order to verify the mitophagy activity-promoting effect of the CD1-012 compound in the 143B MELAS cell line, a mitophagy quantification method using the mt-Keima fluorescent protein, which enables quantitative measurement of mitophagy activity in live cells, was used (2015 Mol Cell, 60 (4): 685-696.doi: 10.1016/j.molcel.2015.10.009:2018 J Vis Exp. (138): 58099 doi: 10.3791/58099.). Specifically, mt-Keima fluorescent protein was expressed in the 143B MELAS cell line, and after treatment with CD1-012 at various concentrations, mitophagy activity was measured using a mitophagy activity measurement method using a fluorescence-activated cell sorter (FACS) or a confocal microscope. […] Additionally, as a result of investigating the reduction of mitochondrial proteins associated with increased mitophagy activity by Western blot, it was confirmed that the levels of SDHA and COX4 proteins decreased when treated with CD1-012 at concentrations of 10 μM or higher (FIG. 9C).

143B MELAS cell line [7] = experiment: mitochondrial protein levels by Western blot in MELAS cell line; type: cell-based; details: FIG. 9C
Text: as §4

143B MELAS cell line [8] = experiment: ATP synthesis in 143B MELAS cell line; type: cell-based; details: 40 μM for 24 hours, measured 2 days later
Description: As confirmed through the previous examples, the compound according to the present invention can promote mitophagy in MELAS syndrome cells, and in the present example, it was confirmed whether the compound can improve mitochondrial dysfunction in MELAS syndrome cells. For this purpose, CD1-012 (40 μM) was treated in the 143B MELAS cell line for 24 hours, and ATP synthesis was measured 2 days later.

[9] = tested on: MELAS syndrome patient-derived cells; experiment: mitochondrial protein levels (SDHA, SDHB) by Western blot in MELAS syndrome patient-derived cells; type: cell-based, human; details: 24 hours
Description: As confirmed in the previous example, mitochondrial dysfunction is observed in MELAS syndrome patient-derived cells, and in the present example, it was confirmed whether the compound according to the present invention can promote mitophagy activity in MELAS syndrome patient-derived cells. CD1-012 was treated in MELAS syndrome patient-derived cells at concentrations of 20 μM or 40 μM for 24 hours, and the levels of mitochondrial proteins SDHA and SDHB were analyzed by Western blot.

[10] = tested on: MELAS syndrome patient-derived cells; experiment: ATP levels in MELAS syndrome patient-derived cells; type: cell-based, human; details: 40 μM for 24 hours, measured 2 days later, untreated 76%
Description: In this example, it was confirmed whether the compound according to the present invention can improve mitochondrial dysfunction in MELAS syndrome patient-derived cells. CD1-012 was treated in MELAS syndrome patient-derived cells at a concentration of 40 μM for 24 hours, and ATP levels were measured 2 days later. As a result, it was confirmed that the ATP levels in MELAS syndrome patient-derived cells, which had decreased to 76% of those in normal cells, were restored to 95% of normal levels by CD1-012 treatment (FIG. 13).

N#CC(C#N)=NNc1cccc(Cl)c1 [CCCP, Carbonyl Cyanide 3-Chlorophenylhydrazone, reference compound]
mitochondrial membrane potential [1]: significantly reduced
mitochondrial ROS levels [2]: significantly increased
mitophagy activation in PINK1 knockdown cell line (shPINK1) compared to control cell line (shNT) [3]: significantly decreased

Oc1cc2c(cc1O)-c1cc3ccc(O)c(O)c3c[n+]1CC2 [CD1-012, 2,3,9,10-Tetrahydroxy-5,6-dihydroisoquinolino [3,2-a]isoquinolin-7-iumbromide]
mitophagy activity compared with CCCP-treated sample (FIG. 1A) (BEAS-2B cell line [4]; FACS, 15 μM 24 hours vs CCCP 10 μM): increased as significantly as
concentration at which mitophagy activity reached a level comparable to the maximum of palmatine and berberine (BEAS-2B cell line [4]; FIG. 5): 10 UM
mitophagy-inducing activity relative to berberine (BEAS-2B cell line [4]; FIG. 5): approximately 8 times
mitophagy-inducing activity relative to palmatine (BEAS-2B cell line [4]; FIG. 5): approximately 40 times
concentration at which mitophagy activity began to significantly increase compared to untreated control (BEAS-2B cell line [4]; flow cytometer, FIG. 3A): ≥ 7.5 µM
mitophagy-promoting effect compared with CCCP (confocal microscope) (BEAS-2B cell line [4]; 15 μM 18 hours vs CCCP 10 μM, FIG. 4A): mitophagy-promoting effects similar to those observed in the CCCP-treated sample
mitophagy activity compared to the untreated control group (Con) (BEAS-2B cell line [4]; 15 μM 24 hours (FACS), 15 μM 18 hours (confocal), 20 μM 24 hours (mito-YFP)): significant increase in mitophagy activity
treatment time after which mitophagy activity began to significantly increase (BEAS-2B cell line [4]; 15 μM, FIG. 3B): 3 h
treatment time at which mitophagy activity reached its maximum level (BEAS-2B cell line [4]; 15 μM, FIG. 3B): 18 h
concentration dependence of mitophagy activity (BEAS-2B cell line [4]; up to the maximum treatment concentration of 17.5 μM): continued to increase in a concentration-dependent manner
mitophagy activity compared to the control group (Con) (SH-SYSY cell line): significantly increased mitophagy activity
mitophagy activity compared to the control group (Con) (HeLa-Parkin cell line): significantly increased mitophagy activity
autophagy activity compared to the untreated control group (BEAS-2B cell line [5]): no significant difference in autophagy activity
mitochondrial membrane potential [1]: no decrease in mitochondrial membrane potential was observed
mitochondrial ROS levels [2]: no increase in mitochondrial ROS was detected
mitophagy activation in PINK1 knockdown cell line (shPINK1) compared to control cell line (shNT) [3]: did not show a significant difference
concentration at which mitophagy activity in the MELAS cell line significantly increased (flow cytometry) (143B MELAS cell line [6]; FIG. 9A): ≥ 10 µM
mitophagy activity by confocal microscopy analysis (143B MELAS cell line [6]; 20 μM and 40 μM, FIG. 9B): increase in mitophagy activity
concentration at which the levels of SDHA and COX4 proteins decreased (143B MELAS cell line [7]): ≥ 10 µM
ATP level relative to the normal cell line levels (143B MELAS cell line [8]): 90%
increase in ATP levels versus untreated MELAS cells (143B MELAS cell line [8]): 131%
ATP levels (143B MELAS cell line [8]; untreated MELAS cells 39.6 nM): 51.9 nM
mitochondrial protein levels (SDHA, SDHB) compared to the untreated control group ([9]; 20 μM): decrease in mitochondrial protein levels
mitochondrial protein expression (SDHA, SDHB) compared to the untreated control group ([9]; 40 μM): more pronounced decrease in mitochondrial protein expression
ATP levels relative to normal cells [10]: 95%

COc1ccc2cc3[n+](cc2c1OC)CCc1cc2c(cc1-3)OCO2 [berberine, Berberine, reference compound]
concentration at which mitophagy activity reached its maximum (BEAS-2B cell line [4]; FIG. 5): 80 µM

COc1cc2c(cc1OC)-c1cc3ccc(OC)c(OC)c3c[n+]1CC2 [palmatine, Palmatine, reference compound]
concentration at which mitophagy activity reached its maximum (BEAS-2B cell line [4]; FIG. 5): 400 µM

Reference: patent US20260144784A1, “COMPOSITION FOR PREVENTING OR TREATING MELAS SYNDROME, CONTAINING ISOPQUINOLINE DERIVATIVE AS ACTIVE INGREDIENT” (ALTMEDICAL CO., LTD., priority 2022, published 2026)
